Values of other authors as cited in US20250250232A1, “AZETIDINE DERIVATIVES AND USE THEREOF AS DIPEPTIDYL PEPTIDASE 1 INHIBITORS” (CHIESI FARMACEUTICI S.P.A., priority 2022, published 2025).

Target: human DPP1 enzyme (Homo sapiens (Human), UniProt P53634)
Conditions: values from K Doyle, J. Med. Chem. 2016, Table 3; cited from earlier work

Sequence of human DPP1 enzyme (P53634 231-394): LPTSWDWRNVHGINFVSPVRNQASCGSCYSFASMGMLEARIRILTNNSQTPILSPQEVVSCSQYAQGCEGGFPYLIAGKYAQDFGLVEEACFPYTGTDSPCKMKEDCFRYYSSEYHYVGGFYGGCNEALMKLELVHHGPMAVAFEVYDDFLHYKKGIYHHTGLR
Sequence of human DPP1 enzyme (P53634 25-134): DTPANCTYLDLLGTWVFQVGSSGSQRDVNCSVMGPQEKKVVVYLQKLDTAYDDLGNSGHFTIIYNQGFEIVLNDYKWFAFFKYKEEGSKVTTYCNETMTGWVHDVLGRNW
Sequence of human DPP1 enzyme (P53634 395-463): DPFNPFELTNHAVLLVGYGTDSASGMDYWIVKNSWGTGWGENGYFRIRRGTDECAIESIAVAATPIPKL

Row | Structure (SMILES) | pIC50 in the human recombinant DPP1 isolated enzyme assay (state of the art)
1 | Cn1c(=O)oc2ccc(-c3ccc(C[C@@H](C#N)NC(=O)C4(C(F)F)CNC4)cc3)cc21 [compound 14, (S)-N-(1-cyano-2-(4-(3-methyl-2-oxo-2,3-dihydrobenzo[d]oxazol-5-yl)phenyl)ethyl)-3-(difluoromethyl)azetidine-3-carboxamide] | less than 5
2 | N#C[C@H](Cc1ccc(-c2ccc3c(c2)C2(CCN(C4COC4)CC2)OC3)cc1F)NC(=O)C1(C(F)F)CNC1 [compound 15, (S)-N-(1-cyano-2-(2-fluoro-4-(1′-(oxetan-3-yl)-3H-spiro[isobenzofuran-1,4′-piperidin]-6-yl)phenyl)ethyl)-3-(difluoromethyl)azetidine-3-carboxamide] | less than 5
3 | CN1C(=O)Cc2ccc(-c3ccc(C[C@@H](C#N)NC(=O)C4(C(F)F)CNC4)c(F)c3)cc21 [compound 16, (S)-N-(1-cyano-2-(2-fluoro-4-(1-methyl-2-oxoindolin-6-yl)phenyl)ethyl)-3-(difluoromethyl)azetidine-3-carboxamide] | 5.9
